Values after ≈ are worked out from the molar mass of the structure shown.
Key:
physchem = settings: system solution buffer, pH 7.4
in vitro = settings: human, plasma
[1] = target: T1, Bifunctional epoxide hydrolase 2 (Homo sapiens, UniProt P34913)
T1 sequence (P34913 whole entry): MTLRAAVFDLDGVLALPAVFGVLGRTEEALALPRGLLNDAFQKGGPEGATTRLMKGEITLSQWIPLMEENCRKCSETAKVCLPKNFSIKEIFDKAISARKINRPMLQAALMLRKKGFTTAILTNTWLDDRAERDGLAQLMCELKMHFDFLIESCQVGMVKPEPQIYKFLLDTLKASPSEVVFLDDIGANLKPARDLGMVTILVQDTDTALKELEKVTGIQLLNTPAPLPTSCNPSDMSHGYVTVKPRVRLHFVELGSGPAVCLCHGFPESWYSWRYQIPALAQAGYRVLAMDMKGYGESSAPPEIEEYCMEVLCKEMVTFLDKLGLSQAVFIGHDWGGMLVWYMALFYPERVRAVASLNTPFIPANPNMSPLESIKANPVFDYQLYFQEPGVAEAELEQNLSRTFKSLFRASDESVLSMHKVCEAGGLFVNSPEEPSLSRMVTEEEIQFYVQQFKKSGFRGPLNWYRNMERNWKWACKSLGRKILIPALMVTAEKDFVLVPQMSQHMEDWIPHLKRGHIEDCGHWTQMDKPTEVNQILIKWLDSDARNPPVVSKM

Plasma = settings: human, 4 h, 10 µM
[2] = buffer, 18 h, pH 7.4
Vero = assay: cells; settings: Chlorocebus sabaeus, 72 h
Pseudomonas aeruginosa = assay: microbe, parasite or virus in culture
Proteus vulgaris = assay: microbe, parasite or virus in culture
Proteus mirabilis = assay: microbe, parasite or virus in culture
Klebsiella pneumoniae = assay: microbe, parasite or virus in culture
Escherichia coli = assay: microbe, parasite or virus in culture; settings: K-12
Burkholderia cepacia = assay: microbe, parasite or virus in culture
Bacillus subtilis = assay: microbe, parasite or virus in culture
Acinetobacter = assay: microbe, parasite or virus in culture
Streptococcus pneumoniae = assay: microbe, parasite or virus in culture
Streptococcus pyogenes = assay: microbe, parasite or virus in culture
Staphylococcus aureus [3] = assay: microbe, parasite or virus in culture; settings: NRS70
Staphylococcus aureus [4] = assay: microbe, parasite or virus in culture; settings: ATCC 29213
Enterococcus faecalis = assay: microbe, parasite or virus in culture
Bacillus anthracis = assay: microbe, parasite or virus in culture; settings: Sterne
[5] = system: Mycobacterium tuberculosis; assay: microbe, parasite or virus in culture; settings: H37Rv, 168 h

| SMILES | solubility at 18 h (physchem) [µg/mL] | fraction unbound at 4 h, 10 µM (in vitro) | IC50 [1] [nM] | IC50 (Vero) [µg/mL] | MIC (Pseudomonas aeruginosa) [µg/mL] | MIC (Proteus vulgaris) [µg/mL] | MIC (Proteus mirabilis) [µg/mL] | MIC (Klebsiella pneumoniae) [µg/mL] | MIC (Escherichia coli) [µg/mL] | MIC (Burkholderia cepacia) [µg/mL] | MIC (Bacillus subtilis) [µg/mL] | MIC (Acinetobacter) [µg/mL] | MIC (Streptococcus pneumoniae) [µg/mL] | MIC (Streptococcus pyogenes) [µg/mL] | MIC (Staphylococcus aureus [3]) [µg/mL] | MIC (Staphylococcus aureus [4]) [µg/mL] | MIC (Enterococcus faecalis) [µg/mL] | MIC (Bacillus anthracis) [µg/mL] | MIC [5] [µg/mL] | also measured |
| --- | --- | --- | --- | --- | --- | --- | --- | --- | --- | --- | --- | --- | --- | --- | --- | --- | --- | --- | --- | --- |
| O=C(Nc1ccc(F)c(F)c1F)NC12CC3CC(CC(C3)C1)C2 | < 0.1 |  |  |  |  |  |  |  |  |  |  |  |  |  |  |  |  |  |  |  |
| CC1C(NC(=O)Nc2ccc(F)c(F)c2F)CC2CC1C2(C)C (configuration not stated) | < 0.1 | 0.008 |  |  |  |  |  |  |  |  |  |  |  |  |  |  |  |  |  |  |
| N#Cc1ccc(NC(=O)NC2C3CC4CC(C3)CC2C4)cc1 (configuration not stated) | < 0.1 | 0.01 |  |  |  |  |  |  |  |  |  |  |  |  |  |  |  |  |  |  |
| Cc1ccc(NC(=O)NC2CCCCCC2)cc1Cl | < 0.1 | 0.003 |  |  |  |  |  |  |  |  |  |  |  |  |  |  |  |  |  |  |
| CCCn1nc(NC(=O)NC2C3CC4CC(C3)CC2C4)cc1C (configuration not stated) |  |  | 936 | 83 (≈ 262 µM) | > 200 | > 200 | > 200 | > 200 | > 200 | > 200 | > 200 | > 200 | > 200 | > 200 | > 200 | > 200 | > 200 | > 200 | 1.56 (≈ 4.93 µM) | PPB (Plasma): 98.9%; solubility [2]: 2 µg/mL (≈ 6.32 µM) |
| O=C(Nc1nccs1)NC12CC3CC(CC(C3)C1)C2 |  |  | 83 | 22 (≈ 79.3 µM) | > 200 | > 200 | > 200 | > 200 | > 200 | > 200 | > 200 | > 200 | 100 (≈ 360 µM) | > 200 | > 200 | > 200 | > 200 | > 200 | 3.13 (≈ 11.3 µM) |  |
| Cc1csc(NC(=O)NC23CC4CC(CC(C4)C2)C3)n1 |  |  | 485 | 13 (≈ 44.6 µM) | > 200 | > 200 | > 200 | > 200 | > 200 | > 200 | > 200 | > 200 | 25 (≈ 85.8 µM) | > 200 | 100 (≈ 343 µM) | 50 (≈ 172 µM) | > 200 | > 200 | 1.56 (≈ 5.35 µM) |  |
| Cc1cnc(NC(=O)NC23CC4CC(CC(C4)C2)C3)s1 |  |  | 116 | 23 (≈ 78.9 µM) | > 200 | > 200 | > 200 | > 200 | > 200 | > 200 | > 200 | > 200 | > 200 | > 200 | 200 (≈ 686 µM) | > 200 | 200 (≈ 686 µM) | > 200 | 3.13 (≈ 10.7 µM) |  |
